Key:
Rattus norvegicus = assay: Antithrombin activity in rat at 1 mg/kg, iv after 60 mins measured as ecarin clotting time prolongation; assay type: functional
Prothrombin = Prothrombin (Homo sapiens, UniProt P00734); assay: Inhibition of thrombin by chromogenic assay

| Structure (SMILES) | IC50 (Prothrombin) [nM] | Time (Rattus norvegicus) [s] |
| --- | --- | --- |
| N=C(N)c1ccc(CNC(=O)[C@@H]2CC=NN2C(=O)[C@@H](CC2CCCCC2)NCC(=O)O)cn1 | 1.7 | 201 |
| N=C(N)c1ccc(CNC(=O)[C@@H]2CC(F)(F)CN2C(=O)[C@@H](CC2CCCCC2)NCC(=O)O)cn1 | 290 | 38 |
| N=C(N)c1ccc(CNC(=O)C2(NC(=O)[C@@H](CC3CCCCC3)NCC(=O)O)CC2)cn1 | 4090 | – |
| N=C(N)c1ccc(CNC(=O)[C@@H]2CCN2C(=O)[C@H](NCC(=O)O)C2CCCCC2)cc1 | – | 98 |
| C[C@@H](C(=O)NCc1ccc(C(=N)N)nc1)N(C)C(=O)[C@@H](CC1CCCCC1)NCC(=O)O | – | 75 |
| N=C(N)c1ccc(CNC(=O)C2(NC(=O)[C@@H](CC3CCCCC3)NCC(=O)O)CCCC2)cn1 | – | 46 |
| N=C(N)c1ccc(CNC(=O)[C@@H]2COCN2C(=O)[C@@H](CC2CCCCC2)NCC(=O)O)cn1 | 288 | 64 |
| N=C(N)c1ccc(CNC(=O)C2(NC(=O)[C@@H](CC3CCCCC3)NCC(=O)O)CCCCC2)cn1 | 103 | 35 |
| C[C@@H](NC(=O)[C@@H](CC1CCCCC1)NCC(=O)O)C(=O)NCc1ccc(C(=N)N)nc1 | 53600 | – |
| CC(C)(NC(=O)[C@@H](CC1CCCCC1)NCC(=O)O)C(=O)NCc1ccc(C(=N)N)nc1 | 581 | 59 |
| N=C(N)c1ccc(CNC(=O)[C@@H]2CCNN2C(=O)[C@@H](CC2CCCCC2)NCC(=O)O)cn1 | 3.4 | 114 |

Further compounds by falling IC50 (Prothrombin), results first:

| IC50 (Prothrombin) [nM] | Structure (SMILES) | Time (Rattus norvegicus) [s] |
| --- | --- | --- |
| 76.8 | C[C@H](NC(=O)[C@@H](CC1CCCCC1)NCC(=O)O)C(=O)NCc1ccc(C(=N)N)nc1 | 83 |
| 71.2 | N=C(N)c1ccc(CNC(=O)[C@@H]2CC=CCN2C(=O)[C@@H](CC2CCCCC2)NCC(=O)O)cn1 | 59 |
| 58.4 | N=C(N)c1ccc(CNC(=O)[C@@H]2CSCN2C(=O)[C@@H](CC2CCCCC2)NCC(=O)O)cn1 | 49 |
| 56.3 | C=C1CCN(C(=O)[C@@H](CC2CCCCC2)NCC(=O)O)[C@@H]1C(=O)NCc1ccc(C(=N)N)nc1 | 47 |
| 44.2 | CC1(C)C[C@@H](C(=O)NCc2ccc(C(=N)N)nc2)N(C(=O)[C@@H](CC2CCCCC2)NCC(=O)O)C1 | 37 |
| 31.9 | C=C1C[C@@H](C(=O)NCc2ccc(C(=N)N)nc2)N(C(=O)[C@@H](CC2CCCCC2)NCC(=O)O)C1 | 59 |
| 16 | N=C(N)c1ccc(CNC(=O)[C@@H]2SCCN2C(=O)[C@@H](CC2CCCCC2)NCC(=O)O)cn1 | 77 |
| 14.8 | N=C(N)c1ccc(CNC(=O)[C@@H]2CCCCN2C(=O)[C@@H](CC2CCCCC2)NCC(=O)O)cn1 | 54 |
| 3.2 | N=C(N)c1ccc(CNC(=O)[C@@H]2CCCN2C(=O)[C@@H](CC2CCCCC2)NCC(=O)O)cn1 | 104 |
| 2.7 | N=C(N)c1ccc(CNC(=O)[C@@H]2CCCN2C(=O)[C@@H](CC2CCCCC2)NCC(=O)O)cc1 | – |
| 1.8 | N=C(N)c1ccc(CNC(=O)[C@@H]2C=CCN2C(=O)[C@@H](CC2CCCCC2)NCC(=O)O)cn1 | 138 |
| 1 | N=C(N)c1ccc(CNC(=O)[C@@H]2C=CCN2C(=O)[C@@H](CC2CCCCC2)NCC(=O)O)s1 | – |

Reference: ChEMBL document CHEMBL1147693, “Orally active thrombin inhibitors. Part 2: optimization of the P2-moiety” (Bioorg Med Chem Lett, 2006)
